Patent US10450318B2, “CXCR4 receptor antagonists” (BRISTOL-MYERS SQUIBB COMPANY, priority 2015, dated 2019)

Biological target: T1, CXCR4 receptors (Homo sapiens, UniProt P61073)
T1 construct: expressing endogenous CXCR4 receptors; endogenous in cells; host or cells: CCRF-CEM (human T lymphoblast cells)
Experiment: CXCR4-CEM calcium flux assay, antagonist mode (inhibition of SDF-1α-induced calcium flux)
Assay type: cell-based
Details: inhibition of calcium flux induced by 4 nM SDF-1α in CCRF-CEM cells
Procedure: Exemplary compounds of the invention were tested for their ability to induce or inhibit calcium flux in CCRF-CEM cells. […] CXCR4-CEM Calcium Flux Assays. […] The cells were then equilibrated to room temperature for 30 minutes before assay. […] The serially diluted compounds were diluted to working concentrations with the same assay buffer to 0.5% DMSO. […] Activity of the compounds to induce calcium flux was monitored by FDSS in the “agonist mode” for 90 sec. For “antagonist mode” assessment, the cells are subsequently incubated for 25 min at room temperature. SDF-1α (R&D System Cat#350-NS/CF) was then added at a final concentration of 4 nM to stimulate the cells. Inhibition of SDF-1α-induced calcium flux was monitored by FDSS6000 for 90 sec. […] After correcting for background, EC50 values were determined. […] Inhibition data for the test compound over a range of concentrations was plotted as percentage inhibition of the test compound as compared to an internal control compound.

T1 sequence (P61073 whole entry): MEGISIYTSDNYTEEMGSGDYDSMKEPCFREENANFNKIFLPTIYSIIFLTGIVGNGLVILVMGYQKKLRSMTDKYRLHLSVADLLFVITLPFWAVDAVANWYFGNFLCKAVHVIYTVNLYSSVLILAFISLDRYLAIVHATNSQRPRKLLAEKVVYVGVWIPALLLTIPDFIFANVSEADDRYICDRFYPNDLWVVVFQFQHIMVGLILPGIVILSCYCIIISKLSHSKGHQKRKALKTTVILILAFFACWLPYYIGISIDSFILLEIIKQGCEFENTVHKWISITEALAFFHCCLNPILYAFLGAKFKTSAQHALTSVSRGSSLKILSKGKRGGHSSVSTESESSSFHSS

| Structure (SMILES) | IC50 [nM] |
| --- | --- |
| CN(Cc1cn2c(N3CCN(Cc4ccc(O)cc4)CC3)nccc2n1)[C@H]1CCCc2cccnc21 [Example 24, 4-({4-[2-({methyl[(S)-5,6,7,8-tetrahydroquinolin-8-yl]amino}methyl)imidazo[1,2-c]pyrimidin-5-yl]piperazin-1-yl}methyl)phenol] | 11 |
| CN(Cc1cn2c(N3CCN(Cc4cccc(Cl)c4)CC3)nccc2n1)[C@H]1CCCc2cccnc21 [Example 25, (S)-N-[(5-{4-[(3-chlorophenyl)methyl]piperazin-1-yl}imidazo[1,2-c]pyrimidin-2-yl)methyl]-N-methyl-5,6,7,8-tetrahydroquinolin-8-amine] | 12 |
| CN(Cc1cn2c(N3CCN(Cc4cccs4)CC3)nccc2n1)[C@H]1CCCc2cccnc21 [Example 26, (S)-N-methyl-N-({5-[4-(thiophen-2-ylmethyl)piperazin-1-yl]imidazo[1,2-c]pyrimidin-2-yl}methyl)-5,6,7,8-tetrahydroquinolin-8-amine] | 14 |
| CN(Cc1cn2c(N3CCN(Cc4cncn4C)CC3)nccc2n1)[C@H]1CCCc2cccnc21 [Example 27, (S)-N-methyl-N-[(5-{4-[(1-methyl-1H-imidazol-5-yl)methyl]piperazin-1-yl}imidazo[1,2-c]pyrimidin-2-yl)methyl]-5,6,7,8-tetrahydroquinolin-8-amine] | 75 |
| CN(Cc1cn2c(N3CCN(Cc4cccnc4)CC3)nccc2n1)[C@H]1CCCc2cccnc21 [Example 28] | 11 |
| CN(Cc1cn2c(N3CCN(Cc4ccncc4)CC3)nccc2n1)[C@H]1CCCc2cccnc21 [Example 29, (S)-N-methyl-N-({5-[4-(pyridin-4-ylmethyl)piperazin-1-yl]imidazo[1,2-c]pyrimidin-2-yl}methyl)-5,6,7,8-tetrahydroquinolin-8-amine] | 77 |
| CN(Cc1cn2c(N3CCN(C4CCC4)CC3)nccc2n1)[C@H]1CCCc2cccnc21 [Example 30, (S)-N-{[5-(4-cyclobutylpiperazin-1-yl)imidazo[1,2-c]pyrimidin-2-yl]methyl}-N-methyl-5,6,7,8-tetrahydroquinolin-8-amine] | 190 |
| CN(Cc1cn2c(N3CCN(CC4CCCC4)CC3)nccc2n1)[C@H]1CCCc2cccnc21 [Example 31, (S)-N-({5-[4-(cyclopentylmethyl)piperazin-1-yl]imidazo[1,2-c]pyrimidin-2-yl}methyl)-N-methyl-5,6,7,8-tetrahydroquinolin-8-amine] | 170 |
| CN(Cc1cn2c(N3CCN(CC4CCOC4)CC3)nccc2n1)[C@H]1CCCc2cccnc21 (stereo partly drawn) [Example 32, (S)-N-methyl-N-({5-[4-(oxolan-3-ylmethyl)piperazin-1-yl]imidazo[1,2-c]pyrimidin-2-yl}methyl)-5,6,7,8-tetrahydroquinolin-8-amine] | 310 |
| CN(Cc1cn2c(N3CCN(CC(C)(C)C)CC3)nccc2n1)[C@H]1CCCc2cccnc21 [Example 33, (S)-N-({5-[4-(2,2-dimethylpropyl)piperazin-1-yl]imidazo[1,2-c]pyrimidin-2-yl}methyl)-N-methyl-5,6,7,8-tetrahydroquinolin-8-amine] | 1000 |
| CN(Cc1cn2c(N3CCN(CCCc4ccccc4)CC3)nccc2n1)[C@H]1CCCc2cccnc21 [Example 34, (S)-N-methyl-N-({5-[4-(3-phenylpropyl)piperazin-1-yl]imidazo[1,2-c]pyrimidin-2-yl}methyl)-5,6,7,8-tetrahydroquinolin-8-amine] | 120 |
| CCN1CCN(c2nccc3nc(CN(C)[C@H]4CCCc5cccnc54)cn23)CC1 [Example 35, (S)-N-{[5-(4-ethylpiperazin-1-yl)imidazo[1,2-c]pyrimidin-2-yl]methyl}-N-methyl-5,6,7,8-tetrahydroquinolin-8-amine] | 510 |

Continued, values first:

| IC50 [nM] | Structure (SMILES) |
| --- | --- |
| 30700 | CN(Cc1cn2c(N3CCN(CCC(F)(F)F)CC3)nccc2n1)[C@H]1CCCc2cccnc21 [Example 36, (S)-N-methyl-N-({5-[4-(3,3,3-trifluoropropyl)piperazin-1-yl]imidazo[1,2-c]pyrimidin-2-yl}methyl)-5,6,7,8-tetrahydroquinolin-8-amine] |
| 23 | CN(Cc1cn2c(N3CCN(Cc4ccccc4)CC3)nccc2n1)[C@H]1CCCc2cccnc21 [Example 37, (S)-N-{[5-(4-benzylpiperazin-1-yl)imidazo[1,2-c]pyrimidin-2-yl]methyl}-N-methyl-5,6,7,8-tetrahydroquinolin-8-amine] |
| 420 | CN1CCC(N2CCN(c3nccc4nc(CN(C)[C@H]5CCCc6cccnc65)cn34)CC2)CC1 [Example 38, (S)-N-methyl-N-({5-[4-(1-methylpiperidin-4-yl)piperazin-1-yl]imidazo[1,2-c]pyrimidin-2-yl}methyl)-5,6,7,8-tetrahydroquinolin-8-amine] |
| 63 | CN(Cc1cn2c(N3CCN(CC(c4ccccc4)c4ccccc4)CC3)nccc2n1)[C@H]1CCCc2cccnc21 [Example 39, (S)-N-({5-[4-(2,2-diphenylethyl)piperazin-1-yl]imidazo[1,2-c]pyrimidin-2-yl}methyl)-N-methyl-5,6,7,8-tetrahydroquinolin-8-amine] |
| 14400 | CC(C)S(=O)(=O)N1CCN(c2nccc3nc(CN(C)[C@H]4CCCc5cccnc54)cn23)CC1 [Example 40, (S)-N-methyl-N-({5-[4-(propane-2-sulfonyl)piperazin-1-yl]imidazo[1,2-c]pyrimidin-2-yl}methyl)-5,6,7,8-tetrahydroquinolin-8-amine] |
| 7500 | CN(Cc1cn2c(N3CCN(S(=O)(=O)c4cccnc4)CC3)nccc2n1)[C@H]1CCCc2cccnc21 [Example 41, (S)-N-methyl-N-({5-[4-(pyridine-3-sulfonyl)piperazin-1-yl]imidazo[1,2-c]pyrimidin-2-yl}methyl)-5,6,7,8-tetrahydroquinolin-8-amine] |
| 22700 | CN(Cc1cn2c(N3CCN(S(=O)(=O)c4cccc(Cl)c4)CC3)nccc2n1)[C@H]1CCCc2cccnc21 [Example 42, (S)-N-({5-[4-(3-chlorobenzenesulfonyl)piperazin-1-yl]imidazo[1,2-c]pyrimidin-2-yl}methyl)-N-methyl-5,6,7,8-tetrahydroquinolin-8-amine] |
| 130 | CN(Cc1cn2c(N3CCN(C(=O)Nc4ccccc4)CC3)nccc2n1)[C@H]1CCCc2cccnc21 [Example 43, 4-[2-({methyl[(S)-5,6,7,8-tetrahydroquinolin-8-yl]amino}methyl)imidazo[1,2-c]pyrimidin-5-yl]-N-phenylpiperazine-1-carboxamide] |
| 9360 | CC(C)NC(=O)N1CCN(c2nccc3nc(CN(C)[C@H]4CCCc5cccnc54)cn23)CC1 [Example 44, 4-[2-({methyl[(S)-5,6,7,8-tetrahydroquinolin-8-yl]amino}methyl)imidazo[1,2-c]pyrimidin-5-yl]-N-(propan-2-yl)piperazine-1-carboxamide] |
| 66 | CN(Cc1cn2c(N3CCN(C(=O)Nc4cccnc4)CC3)nccc2n1)[C@H]1CCCc2cccnc21 [Example 45, 4-[2-({methyl[(S)-5,6,7,8-tetrahydroquinolin-8-yl]amino}methyl)imidazo[1,2-c]pyrimidin-5-yl]-N-(pyridin-3-yl)piperazine-1-carboxamide] |
| 7.3 | CC(CN1CCN(c2nccc3nc(CN(C)[C@H]4CCCc5cccnc54)cn23)CC1)c1ccccc1 (stereo partly drawn) [Example 46, (S)-N-methyl-N-({5-[4-(2-phenylpropyl)piperazin-1-yl]imidazo[1,2-c]pyrimidin-2-yl}methyl)-5,6,7,8-tetrahydroquinolin-8-amine] |
| 9.7 | CN(Cc1cn2c(N3CCN(Cc4ccc(-c5ccccc5)cc4)CC3)nccc2n1)[C@H]1CCCc2cccnc21 [Example 47, (S)-N-methyl-N-[(5-{4-[(4-phenylphenyl)methyl]piperazin-1-yl}imidazo[1,2-c]pyrimidin-2-yl)methyl]-5,6,7,8-tetrahydroquinolin-8-amine] |
| 300 | CCOC(=O)CN1CCN(c2nccc3nc(CN(C)[C@H]4CCCc5cccnc54)cn23)CC1 [Example 48, ethyl 2-{4-[2-({methyl[(S)-5,6,7,8-tetrahydroquinolin-8-yl]amino}methyl)imidazo[1,2-c]pyrimidin-5-yl]piperazin-1-yl}acetate] |
| 2.8 | CN(Cc1cn2c(N3CCN(Cc4ncc[nH]4)CC3)nccc2n1)[C@H]1CCCc2cccnc21 [Example 49, (S)-N-({5-[4-(1H-imidazol-2-ylmethyl)piperazin-1-yl]imidazo[1,2-c]pyrimidin-2-yl}methyl)-N-methyl-5,6,7,8-tetrahydroquinolin-8-amine] |
| 92 | CN(Cc1cn2c(N3CCN(CC(=O)O)CC3)nccc2n1)[C@H]1CCCc2cccnc21 [Example 50, 2-{4-[2-({methyl[(S)-5,6,7,8-tetrahydroquinolin-8-yl]amino}methyl)imidazo[1,2-c]pyrimidin-5-yl]piperazin-1-yl}acetic acid] |
| 6 | CN(Cc1cn2c(N3CCN(Cc4nccn4C)CC3)nccc2n1)[C@H]1CCCc2cccnc21 [Example 51, (S)-N-methyl-N-[(5-{4-[(1-methyl-1H-imidazol-2-yl)methyl]piperazin-1-yl}imidazo[1,2-c]pyrimidin-2-yl)methyl]-5,6,7,8-tetrahydroquinolin-8-amine] |
| 2.9 | Cc1cccc(CN2CCN(c3nccc4nc(CN(C)[C@H]5CCCc6cccnc65)cn34)CC2)c1 [Example 52, (S)-N-methyl-N-[(5-{4-[(3-methylphenyl)methyl]piperazin-1-yl}imidazo[1,2-c]pyrimidin-2-yl)methyl]-5,6,7,8-tetrahydroquinolin-8-amine] |
